Laboratory results as given in US20240166612A1, “ARYLTHIOETHER ACETAMIDE AND RELATED COMPOUNDS AND THEIR USE IN TREATING MEDICAL CONDITIONS” (X-Biotix Therapeutics, Inc., priority 2021, published 2024).
Values after ≈ are worked out from the molar mass of the structure shown.

Tests used:
[1] = tested on: Wild-type P. aeruginosa PAO1; experiment: Broth microdilution MIC, wild-type P. aeruginosa PAO1; assay type: cell-based; settings: Pseudomonas aeruginosa; wild-type P. aeruginosa PAO1, 37° C., 18 h; read-out: PAO1 WT MIC
P. aeruginosa PAO397 = experiment: Broth microdilution MIC, P. aeruginosa PAO397; assay type: cell-based; settings: Pseudomonas aeruginosa, PAO397, 18 h, read-out: PAO397 KO MIC
[2] = target: T1, recombinant LpxA enzyme (P. aeruginosa) (Pseudomonas aeruginosa, UniProt Q9X6P4); experiment: LpxA in vitro substrate acylation assay with RapidFire MS analysis (P. aeruginosa); assay type: biochemical; settings: P. aeruginosa enzyme 0.5 nM, PaACP-C10, 30 min
T1 sequence (Q9X6P4 1-258): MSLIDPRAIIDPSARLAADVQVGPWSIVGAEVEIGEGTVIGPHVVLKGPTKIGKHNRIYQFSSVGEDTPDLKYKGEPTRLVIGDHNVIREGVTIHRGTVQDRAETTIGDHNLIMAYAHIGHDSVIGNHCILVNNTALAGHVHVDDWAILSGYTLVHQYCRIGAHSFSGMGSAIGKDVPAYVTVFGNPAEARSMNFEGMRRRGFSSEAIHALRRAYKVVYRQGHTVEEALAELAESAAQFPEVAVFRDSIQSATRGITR

[3] = target: recombinant LpxA enzyme (E. coli) (Escherichia coli, UniProt P0A722); experiment: LpxA in vitro substrate acylation assay with RapidFire MS analysis (E. coli); assay type: biochemical
recombinant LpxA enzyme (E. coli), sequence (P0A722 whole entry): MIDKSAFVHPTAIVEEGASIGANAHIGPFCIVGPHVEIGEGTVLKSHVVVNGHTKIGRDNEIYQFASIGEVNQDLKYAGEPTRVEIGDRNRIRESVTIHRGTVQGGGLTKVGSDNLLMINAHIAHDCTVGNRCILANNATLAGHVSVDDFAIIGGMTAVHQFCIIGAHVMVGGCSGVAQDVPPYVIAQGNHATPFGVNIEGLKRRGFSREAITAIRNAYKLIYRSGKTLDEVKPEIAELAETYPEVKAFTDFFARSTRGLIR
Experimental: Exemplary compounds from the above Examples were tested for ability to inhibit LpxA activity using an in vitro substrate acylation assay with RapidFire™ MS analysis. Assay procedures and results are described below.
Reactions were carried out in a final volume of 30 μL with 25 mM HEPES (pH 7.3), 150 mM NaCl, 2 mM DTT, 0.01% BSA, 5 μM UDP-GlcNac, recombinant LpxA enzyme (0.5 nM P. aeruginosa or 1.0 nM E. coli, both produced at Evotec), 0.5 μM acyl-transfer reagent (decanoyl P. aeruginosa acyl-carrier protein [PaACP-C10] or myristoyl E. coli acyl-carrier protein [EcACP-C1-4], both produced at Evotec), and 1% DMSO containing test compound. After 30 min incubation at room temperature, reactions were stopped by addition of 30 μL of 10% TCA in water.
Samples were centrifuged (4350 rpm, 4° C., 5 min), and then subjected to RapidFire™ MS analysis on an Agilent RapidFire 300 coupled to an Agilent 6460 triple-quadrupole mass spectrometer. Analytes were retained on a C4 (type A) cartridge using the following solvents and flow rates: • Pump 1—H2O with 5 mM NH4OAc at 2.0 mL/min, • Pump 2—MeOH/H2O (90/10) at 1.5 mL/min, • Pump 3—MeOH/H2O (90/10) at 0.5 mL/min, and • Pump 4—ACN (organic)/H2O (aqueous). Substrate and product of the reaction were detected in negative mode ESI-MS/MS by MRM (multiple reaction monitoring) of transitions 606.0/385.0 (UDP-GlcNAc substrate) and 776.2/385.0 (UDP-3-O—(R-3-hydroxydecanoyl)-GlcNAc product, for P. aeruginosa LpxA assay) or 832.2/385.0 (UDP-3-O—(R-3-hydroxymyristoyl)-GlcNAc product, for E. coli LpxA assay).
For IC50 determinations, peak areas of the substrate and product were compared to compute the proportion of product formed by the LpxA enzyme at each compound concentration.

P. aeruginosa LESB58 = experiment: Broth microdilution MIC, P. aeruginosa LESB58; assay type: cell-based; settings: Pseudomonas aeruginosa; P. aeruginosa LESB58 clinical isolate, colistin-resistant, 37° C., 18 h
[4] = tested on: P. aeruginosa PAO1 ΔmexABoprM; experiment: Broth microdilution MIC, P. aeruginosa PAO1 ΔmexABoprM; assay type: cell-based; settings: Pseudomonas aeruginosa, PAO1, 18 h, read-out: PAO1 KO MIC
Experimental: Exemplary compounds from the above Examples were tested to determine their minimum inhibitory concentration (MIC) for exemplary strains of Escherichia and Pseudomonas bacteria using broth microdilution methods. Assay procedures and results are described below.
Broth microdilution assays were conducted according to Clinical and Laboratory Standards Institute guidelines (CLSI, M07-A^11: Clinical and Laboratory Standards Institute. Methods for Dilution Antimicrobial Susceptibility Tests for Bacteria that Grow Aerobically; Approved Standard-11th Edition. Wayne, PA: CLSI, 2018). Briefly, bacterial suspensions were adjusted to a density equivalent to a 0.5 McFarland standard and diluted in sterile, cation-adjusted Mueller-Hinton broth (Beckton Dickinson) to yield a final inoculum between 2×10^5 and 8×10^5 colony-forming units (CFU)/mL. An inoculum volume of 98 μL was added to wells containing 2 μL of 2-fold serial dilutions of drug (prepared in DMSO). All inoculated microdilution trays were incubated in ambient air at 37° C. for 18 h. […] Performance of the assay was monitored by the use of laboratory quality-control strains (S. aureus ATCC 29213 and P. aeruginosa ATCC 27853) and levofloxacin, a compound with a defined MIC spectrum, in accordance with CLSI guidelines (CLSI, M100Ed29: Clinical and Laboratory Standards Institute. Performance Standards for Antimicrobial Susceptibility Testing, 29th Edition. Wayne, PA: CLSI, 2018).
Multiple enterobacteriaceae strains were tested, including both wild-type strains and multi-drug resistance pump deficient mutants. Specific strains tested included the following: • Wild-type P. aeruginosa PAO1, • P. aeruginosa PAO1 ΔmexABoprM—Disabled multi-drug efflux system Δ(MexAB-OprM), • P. aeruginosa PAO397—PAO1Δ(mexAB-oprM) Δ(mexCD-oprJ) Δ(mexEF-oprN) Δ(mexJK) Δ(mexXY) ΔopmH, • P. aeruginosa LESB58—Clinical isolate; colistin-resistant, isolated in the United Kingdom in 1988 from a patient with cystic fibrosis • E. coli JW0452-3 (BW25113 JacrA::kan)—Disabled multi-drug efflux system (AcrAB-TolC).
Experimental results are provided in Table 11, which provides MIC values for wild-type P. aeruginosa PAO1 (“PAO1 WT MIC”), P. aeruginosa PAO ΔmexABoprM (“PAO1 KO MIC”), P. aeruginosa PAO397 (“PAO397 KO MIC”), P. aeruginosa LESB58 (“LESB58”), and E. coli JW0452-3 (BW25113 JacrA::kan) (“E. coli KO MIC”).

SMILES | MIC [1] | MIC (P. aeruginosa PAO397) | IC50 [2] | IC50 [3] | MIC (P. aeruginosa LESB58) | MIC [4]
N#Cc1ccc(CN(CC(=O)N2CCNCC2)C(=O)CSc2ccccc2Cl)cc1 [Compound No. 3] | > 64 µg/mL | 16 to 64 µg/mL (≈ 36.1 to 144 µM) | > 1000 nM | > 20000 nM | – | –
CCc1ccccc1SCC(=O)N(Cc1ccc(C#N)nc1)Cc1nnc(N)o1 [Compound No. 7, N-[(5-Amino-1,3,4-oxadiazol-2-yl)methyl]-N-[(6-cyano-3-pyridyl)methyl]-2-(2-ethylphenyl)sulfanyl-acetamide] | > 64 µg/mL | < 1 µg/mL | < 20 nM | – | 16 to 64 µg/mL (≈ 39.2 to 157 µM) | 1 to 16 µg/mL (≈ 2.45 to 39.2 µM)
N#Cc1ccc(CN(C(=O)CSc2ccccc2Cl)[C@@H](CO)c2nnc(N)o2)cn1 [Compound No. 8, 2-(2-Chlorophenyl)sulfanyl-N-[(6-cyano-3-pyridyl)methyl]-N-[(1S)-1-(5-amino-1,3,4-oxadiazol-2-yl)-2-hydroxy-ethyl]acetamide] | > 64 µg/mL | < 1 µg/mL | < 20 nM | > 20000 nM | – | 1 to 16 µg/mL (≈ 2.25 to 36 µM)
Nc1nnc(CN(Cc2ccc(OC3CCOCC3)cc2)C(=O)CSc2ccccc2Cl)o1 [Compound No. 11] | – | < 1 µg/mL | 100 to 1000 nM | > 20000 nM | – | 1 to 16 µg/mL (≈ 2.05 to 32.7 µM)
N#Cc1ccc(CN(Cc2nnc(N)o2)C(=O)CSc2cc(F)cc(F)c2Cl)cn1 [Compound No. 21, N-[(5-Amino-1,3,4-oxadiazol-2-yl)methyl]-2-(2-chloro-3,5-difluoro-phenyl)sulfanyl-N-[(6-cyano-3-pyridyl)methyl]acetamide] | 16 to 64 µg/mL (≈ 35.5 to 142 µM) | < 1 µg/mL | < 20 nM | – | 16 to 64 µg/mL (≈ 35.5 to 142 µM) | 1 to 16 µg/mL (≈ 2.22 to 35.5 µM)
N#Cc1ccc(CN(Cc2nnc(N)o2)C(=O)CSc2ccccc2Cl)cc1 [compound 9] | 16 to 64 µg/mL (≈ 38.7 to 155 µM) | < 1 µg/mL | – | > 20000 nM | – | 1 to 16 µg/mL (≈ 2.42 to 38.7 µM)
N#Cc1ccc(CN(Cc2nnc(N)o2)C(=O)CCc2ccccc2Cl)cn1 [compound 16] | > 64 µg/mL | 1 to 16 µg/mL (≈ 2.52 to 40.3 µM) | 100 to 1000 nM | > 20000 nM | – | 16 to 64 µg/mL (≈ 40.3 to 161 µM)
CCc1ccccc1OCC(=O)N(Cc1ccc(C#N)nc1)Cc1nnc(N)o1 [compound 19] | > 64 µg/mL | < 1 µg/mL | 20 to 100 nM | – | 16 to 64 µg/mL (≈ 40.8 to 163 µM) | 1 to 16 µg/mL (≈ 2.55 to 40.8 µM)
Nc1nnc(CN(Cc2ccc(S(N)(=O)=O)cc2F)C(=O)CSc2cc(F)ccc2Cl)o1 [compound 24] | > 64 µg/mL | < 1 µg/mL | 20 to 100 nM | – | 16 to 64 µg/mL (≈ 31.7 to 127 µM) | 1 to 16 µg/mL (≈ 1.98 to 31.7 µM)
Nc1nnc(CN(Cc2ccc(S(N)(=O)=O)cc2F)C(=O)CSc2cc(F)cc(F)c2Cl)o1 [compound 27] | > 64 µg/mL | < 1 µg/mL | – | > 20000 nM | 1 to 16 µg/mL (≈ 1.92 to 30.7 µM) | < 1 µg/mL
C[C@@H](Oc1ccccc1Cl)C(=O)N(Cc1ccc(C#N)cc1)Cc1nnc(N)o1 [compound 36] | > 64 µg/mL | < 1 µg/mL | 100 to 1000 nM | – | > 64 µg/mL | 16 to 64 µg/mL (≈ 38.8 to 155 µM)
CC(=O)Nc1ccc(CN(Cc2nnc(N)o2)C(=O)CSc2ccccc2Cl)cc1 [compound 44] | > 64 µg/mL | 16 to 64 µg/mL (≈ 35.9 to 144 µM) | 100 to 1000 nM | > 20000 nM | – | –
Cc1cc(C#N)ccc1CN(Cc1nnc(N)o1)C(=O)CSc1ccccc1Cl [compound 48] | > 64 µg/mL | < 1 µg/mL | 20 to 100 nM | – | – | 16 to 64 µg/mL (≈ 37.4 to 150 µM)
N#Cc1ccc(CN(Cc2nnc(N)o2)C(=O)CSc2cc(F)ccc2Cl)cc1 [compound 51] | > 64 µg/mL | < 1 µg/mL | < 20 nM | – | 1 to 16 µg/mL (≈ 2.32 to 37 µM) | 1 to 16 µg/mL (≈ 2.32 to 37 µM)
N#Cc1ccc(CN(Cc2nnn[nH]2)C(=O)CSc2ccccc2Cl)cc1 [compound 54] | > 64 µg/mL | 16 to 64 µg/mL (≈ 40.1 to 160 µM) | – | > 20000 nM | – | –
N#Cc1ccc(CN(Cc2nnc(N)o2)C(=O)CSc2cccc(Cl)c2Cl)c(F)c1 [compound 57] | > 64 µg/mL | < 1 µg/mL | 20 to 100 nM | – | 16 to 64 µg/mL (≈ 34.3 to 137 µM) | 1 to 16 µg/mL (≈ 2.14 to 34.3 µM)
N#Cc1ccc(CN(Cc2nnc(N)o2)C(=O)CSc2ncccc2Cl)c(F)c1 [compound 58] | > 64 µg/mL | < 1 µg/mL | 20 to 100 nM | – | > 64 µg/mL | 1 to 16 µg/mL (≈ 2.31 to 37 µM)
Nc1nnc(CN(Cc2ccc(S(N)(=O)=O)cc2)C(=O)CSc2cc(F)cc(F)c2Cl)o1 [compound 59] | > 64 µg/mL | < 1 µg/mL | < 20 nM | > 20000 nM | 16 to 64 µg/mL (≈ 31.7 to 127 µM) | 1 to 16 µg/mL (≈ 1.98 to 31.7 µM)
Cc1ncc(CN(Cc2ccc(C#N)cc2)C(=O)CSc2ccccc2Cl)o1 [compound 73] | > 64 µg/mL | 1 to 16 µg/mL (≈ 2.43 to 38.8 µM) | 100 to 1000 nM | > 20000 nM | – | –
Cc1nnc(CN(Cc2ccc(C#N)cc2)C(=O)CSc2ccccc2Cl)[nH]1 [compound 74] | > 64 µg/mL | 1 to 16 µg/mL (≈ 2.43 to 38.8 µM) | 100 to 1000 nM | – | – | 16 to 64 µg/mL (≈ 38.8 to 155 µM)
NC(=O)c1ccc(CN(Cc2nnc(N)o2)C(=O)CSc2ccccc2Cl)cc1 [compound 76] | > 64 µg/mL | 1 to 16 µg/mL (≈ 2.32 to 37 µM) | 100 to 1000 nM | > 20000 nM | – | 16 to 64 µg/mL (≈ 37 to 148 µM)
